tested on: mice; assay: Neuropharmacological assay (SmartCube), behavioral signature of compound-treated mice; type: in vivo; details: i.p. 15 min before behavioral test, most efficacious dose(s) of 3 doses
How it was run: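 Mice received compound i.p. in NMP/PEG/propylene glycol vehicle at 3 doses, 15 min before testing. Video-captured behavior was algorithmically compared with a reference-drug signature database.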

| SMILES | AD: ADHD (probability that behavioral signature matches class) | AG: analgesic (probability that behavioral signature matches class) | AX: anxiolytic (probability that behavioral signature matches class) | CE: cognitive enhancer (probability that behavioral signature matches class) | DP: anti-depressant (probability that behavioral signature matches class) | HA: hallucinogen (probability that behavioral signature matches class) | MS: mood stabilizer (probability that behavioral signature matches class) | PS: anti-psychotic (probability that behavioral signature matches class) | SD: sedative hypnotic (probability that behavioral signature matches class) | UN: uncharacterized CNS activity (probability that behavioral signature matches class) |
| --- | --- | --- | --- | --- | --- | --- | --- | --- | --- | --- |
| c1ccc2c(c1)CCCO[C@@H]2[C@@H]1CCCN1 [Compound I-97, (S)-2-((S)-1,3,4,5-tetrahydrobenzo[c]oxepin-1-yl)pyrrolidine] | + (LOQ ≤ + <5%) | +++ (25% ≤ +++ <50%) | ++ (5% ≤ ++ <25%) | ++ (5% ≤ ++ <25%) | ++ (5% ≤ ++ <25%) | + (LOQ ≤ + <5%) | ++ (5% ≤ ++ <25%) | +++ (25% ≤ +++ <50%) | ++ (5% ≤ ++ <25%) | + (LOQ ≤ + <5%) |
| c1ccc2c(c1)CCO[C@H]2C1CNC1 [Compound I-115, (S)-3-(isochroman-1-yl)azetidine] | + (LOQ ≤ + <5%) | ++ (5% ≤ ++ <25%) | ++ (5% ≤ ++ <25%) | ++ (5% ≤ ++ <25%) | ++ (5% ≤ ++ <25%) | + (LOQ ≤ + <5%) | + (LOQ ≤ + <5%) | ++ (5% ≤ ++ <25%) | ++ (5% ≤ ++ <25%) | +++ (25% ≤ +++ <50%) |
| C[C@]1([C@H]2CCCN2)OCc2cc(F)ccc21 [Compound I-125, (R)-2-((S)-5-fluoro-1-methyl-1,3-dihydroisobenzofuran-1-yl)pyrrolidine] | + (LOQ ≤ + <5%) | ++ (5% ≤ ++ <25%) | ++ (5% ≤ ++ <25%) | ++ (5% ≤ ++ <25%) | ++++ (50% ≤ ++++) | + (LOQ ≤ + <5%) | + (LOQ ≤ + <5%) | + (LOQ ≤ + <5%) | ++ (5% ≤ ++ <25%) | + (LOQ ≤ + <5%) |
| N#Cc1cccc2c1[C@@H]([C@@H]1CCCN1)OCC2 [Compound I-37, (S)-1-((S)-pyrrolidin-2-yl)isochroman-8-carbonitrile] | + (LOQ ≤ + <5%) | + (LOQ ≤ + <5%) | ++ (5% ≤ ++ <25%) | + (LOQ ≤ + <5%) | ++ (5% ≤ ++ <25%) | + (LOQ ≤ + <5%) | + (LOQ ≤ + <5%) | ++ (5% ≤ ++ <25%) | + (LOQ ≤ + <5%) | +++ (25% ≤ +++ <50%) |
| CC1(C)Cc2ccccc2[C@H]([C@H]2CCCN2)O1 [Compound I-68, (R)-2-((R)-3,3-dimethylisochroman-1-yl)pyrrolidine] | + (LOQ ≤ + <5%) | + (LOQ ≤ + <5%) | + (LOQ ≤ + <5%) | + (LOQ ≤ + <5%) | + (LOQ ≤ + <5%) | + (LOQ ≤ + <5%) | + (LOQ ≤ + <5%) | + (LOQ ≤ + <5%) | + (LOQ ≤ + <5%) | + (LOQ ≤ + <5%) |
| Fc1ccc2c(c1)CCCO[C@@H]2[C@H]1CCCN1 [Compound I-112, (R)-2-((S)-7-fluoro-1,3,4,5-tetrahydrobenzo[c]oxepin-1-yl)pyrrolidine] | + (LOQ ≤ + <5%) | + (LOQ ≤ + <5%) | ++ (5% ≤ ++ <25%) | ++ (5% ≤ ++ <25%) | ++ (5% ≤ ++ <25%) | + (LOQ ≤ + <5%) | + (LOQ ≤ + <5%) | +++ (25% ≤ +++ <50%) | + (LOQ ≤ + <5%) | + (LOQ ≤ + <5%) |
| Fc1ccc2c(c1)CO[C@@H]2[C@@H]1CCN1 [Compound I-126, (S)-2-((S)-5-fluoro-1,3-dihydroisobenzofuran-1-yl)azetidine] | + (LOQ ≤ + <5%) | ++ (5% ≤ ++ <25%) | ++ (5% ≤ ++ <25%) | ++ (5% ≤ ++ <25%) | +++ (25% ≤ +++ <50%) | + (LOQ ≤ + <5%) | + (LOQ ≤ + <5%) | +++ (25% ≤ +++ <50%) | ++ (5% ≤ ++ <25%) | ++ (5% ≤ ++ <25%) |
| N#Cc1ccc2c(c1)CCO[C@@H]2[C@@H]1CCCN1 [Compound I-43, (S)-1-((S)-pyrrolidin-2-yl)isochroman-6-carbonitrile] | + (LOQ ≤ + <5%) | ++ (5% ≤ ++ <25%) | +++ (25% ≤ +++ <50%) | ++ (5% ≤ ++ <25%) | ++ (5% ≤ ++ <25%) | + (LOQ ≤ + <5%) | + (LOQ ≤ + <5%) | ++ (5% ≤ ++ <25%) | + (LOQ ≤ + <5%) | + (LOQ ≤ + <5%) |
| Fc1cccc2c1[C@H]([C@@H]1CCCN1)OCCC2 [Compound I-105, (S)-2-((R)-9-fluoro-1,3,4,5-tetrahydrobenzo[c]oxepin-1-yl)pyrrolidine] | + (LOQ ≤ + <5%) | ++ (5% ≤ ++ <25%) | +++ (25% ≤ +++ <50%) | ++ (5% ≤ ++ <25%) | ++ (5% ≤ ++ <25%) | + (LOQ ≤ + <5%) | + (LOQ ≤ + <5%) | ++ (5% ≤ ++ <25%) | ++ (5% ≤ ++ <25%) | ++++ (50% ≤ ++++) |
| FC1(F)CN[C@H]([C@H]2OCCc3ccccc32)C1 [Compound I-63, (S)-4,4-difluoro-2-((S)-isochroman-1-yl)pyrrolidine] | + (LOQ ≤ + <5%) | + (LOQ ≤ + <5%) | + (LOQ ≤ + <5%) | + (LOQ ≤ + <5%) | + (LOQ ≤ + <5%) | + (LOQ ≤ + <5%) | + (LOQ ≤ + <5%) | + (LOQ ≤ + <5%) | + (LOQ ≤ + <5%) | + (LOQ ≤ + <5%) |
| C[C@]1([C@@H]2CCCN2)OCc2cc(F)ccc21 [Compound I-123, (S)-2-((S)-5-fluoro-1-methyl-1,3-dihydroisobenzofuran-1-yl)pyrrolidine] | + (LOQ ≤ + <5%) | + (LOQ ≤ + <5%) | + (LOQ ≤ + <5%) | + (LOQ ≤ + <5%) | + (LOQ ≤ + <5%) | + (LOQ ≤ + <5%) | + (LOQ ≤ + <5%) | + (LOQ ≤ + <5%) | + (LOQ ≤ + <5%) | + (LOQ ≤ + <5%) |

same assay, conditions: i.p. 15 min before behavioral test, most efficacious dose(s) of 3 doses

| SMILES | XG: anxiogenic (probability that behavioral signature matches class) |
| --- | --- |
| c1ccc2c(c1)CCCO[C@@H]2[C@@H]1CCCN1 [Compound I-97, (S)-2-((S)-1,3,4,5-tetrahydrobenzo[c]oxepin-1-yl)pyrrolidine] | + (LOQ ≤ + <5%) |
| c1ccc2c(c1)CCO[C@H]2C1CNC1 [Compound I-115, (S)-3-(isochroman-1-yl)azetidine] | + (LOQ ≤ + <5%) |
| C[C@]1([C@H]2CCCN2)OCc2cc(F)ccc21 [Compound I-125, (R)-2-((S)-5-fluoro-1-methyl-1,3-dihydroisobenzofuran-1-yl)pyrrolidine] | + (LOQ ≤ + <5%) |
| N#Cc1cccc2c1[C@@H]([C@@H]1CCCN1)OCC2 [Compound I-37, (S)-1-((S)-pyrrolidin-2-yl)isochroman-8-carbonitrile] | + (LOQ ≤ + <5%) |
| CC1(C)Cc2ccccc2[C@H]([C@H]2CCCN2)O1 [Compound I-68, (R)-2-((R)-3,3-dimethylisochroman-1-yl)pyrrolidine] | + (LOQ ≤ + <5%) |
| Fc1ccc2c(c1)CCCO[C@@H]2[C@H]1CCCN1 [Compound I-112, (R)-2-((S)-7-fluoro-1,3,4,5-tetrahydrobenzo[c]oxepin-1-yl)pyrrolidine] | + (LOQ ≤ + <5%) |
| Fc1ccc2c(c1)CO[C@@H]2[C@@H]1CCN1 [Compound I-126, (S)-2-((S)-5-fluoro-1,3-dihydroisobenzofuran-1-yl)azetidine] | + (LOQ ≤ + <5%) |
| N#Cc1ccc2c(c1)CCO[C@@H]2[C@@H]1CCCN1 [Compound I-43, (S)-1-((S)-pyrrolidin-2-yl)isochroman-6-carbonitrile] | + (LOQ ≤ + <5%) |
| Fc1cccc2c1[C@H]([C@@H]1CCCN1)OCCC2 [Compound I-105, (S)-2-((R)-9-fluoro-1,3,4,5-tetrahydrobenzo[c]oxepin-1-yl)pyrrolidine] | + (LOQ ≤ + <5%) |
| FC1(F)CN[C@H]([C@H]2OCCc3ccccc32)C1 [Compound I-63, (S)-4,4-difluoro-2-((S)-isochroman-1-yl)pyrrolidine] | + (LOQ ≤ + <5%) |
| C[C@]1([C@@H]2CCCN2)OCc2cc(F)ccc21 [Compound I-123, (S)-2-((S)-5-fluoro-1-methyl-1,3-dihydroisobenzofuran-1-yl)pyrrolidine] | + (LOQ ≤ + <5%) |

From US10336732B2, “1-heterocyclyl isochromanyl compounds and analogs for treating CNS disorders” (Sunovion Pharmaceuticals Inc., priority 2015, dated 2019)
